# Measurements taken from patent US11497751B2, “Modulators of Rho-associated protein kinase” (Redx Pharma PLC, priority 2018, dated 2022).
# Where a name gives a salt, the structure may show the parent alone.
# Molecular target: T1, N-terminal 6His-tagged ROCK2 catalytic domain 11-552 (Homo sapiens, UniProt O75116)
# T1 construct: N-terminal 6His-tagged ROCK2 catalytic domain 11-552; 6His (N); purchased Dundee University, UK; host or cells: baculovirus expression system
# Assay: ROCK2 binding activity: ROCK2 inhibition, ADP-Glo Kinase Assay
# Type: biochemical
# Conditions: 1.25 nM ROCK2, 100 μM long S6 peptide, 20 μM ATP; 1 hour pre-incubation; read-out: ADP-Glo kinase activity assay ROCK2 Category
# Procedure, shortened: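 1.25 nM baculovirus-expressed ROCK2 pre-incubated 1 h with compound (1% DMSO), then 100 μM long S6 peptide and 20 μM ATP added for 1 h; 50 mM HEPES pH 7.5, 10 mM Mg acetate, 1 mM DTT. ADP-Glo luminescence; IC50 from four-parameter logistic fit.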
# T1 sequence (O75116 11-552): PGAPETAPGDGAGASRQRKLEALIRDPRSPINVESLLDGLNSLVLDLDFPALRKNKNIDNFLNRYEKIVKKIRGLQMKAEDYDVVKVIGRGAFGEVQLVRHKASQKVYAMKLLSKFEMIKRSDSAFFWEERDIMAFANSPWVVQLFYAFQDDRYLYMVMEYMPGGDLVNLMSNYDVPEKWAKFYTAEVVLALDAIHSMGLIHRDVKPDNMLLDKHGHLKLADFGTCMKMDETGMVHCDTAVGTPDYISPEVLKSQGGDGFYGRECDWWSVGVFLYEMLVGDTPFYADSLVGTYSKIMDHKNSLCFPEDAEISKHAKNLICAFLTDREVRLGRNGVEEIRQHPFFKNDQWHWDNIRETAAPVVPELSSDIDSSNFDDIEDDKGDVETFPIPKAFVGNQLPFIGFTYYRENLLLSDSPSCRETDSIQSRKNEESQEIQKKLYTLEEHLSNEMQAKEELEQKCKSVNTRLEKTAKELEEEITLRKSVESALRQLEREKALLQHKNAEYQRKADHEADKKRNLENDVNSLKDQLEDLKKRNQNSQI
row,Compound,IC50
1,"CS(=O)(=O)NCCOc1ccc(-c2nnc(Nc3ccc4[nH]ncc4c3)[nH]2)cc1 [Example 220, N-[2-[4-[5-(1H-Indazol-5-ylamino)-4H-1,2,4-triazol-3-yl]phenoxy]ethyl]methanesulfonamide]",300 to 3000 nM
2,CC(=O)NCCOc1ccc(-c2nnc(Nc3ccc4[nH]ncc4c3)[nH]2)cc1 [Example 221],300 to 3000 nM
3,c1ccc(NCCOc2ccc(-c3nnc(Nc4ccc5[nH]ncc5c4)[nH]3)cc2)nc1 [Example 222],< 300 nM
4,CC(C)CC(=O)NCCOc1ccc(-c2nnc(Nc3ccc4[nH]ncc4c3)[nH]2)cc1 [Example 223],3000 to 10000 nM
5,"CC(C)NC(=O)NCCOc1ccc(-c2nnc(Nc3ccc4[nH]ncc4c3)[nH]2)cc1 [Example 224, 1-[2-[4-[5-(1H-indazol-5-ylamino)-4H-1,2,4-triazol-3-yl]phenoxy]ethyl]-3-isopropyl-urea dihydrochloride]",< 300 nM
6,O=C(NCCOc1ccc(-c2nnc(Nc3ccc4[nH]ncc4c3)[nH]2)cc1)N1CCCC1 [Example 225],300 to 3000 nM
7,"CC(C)NS(=O)(=O)COc1ccc(-c2n[nH]c(Nc3ccc4[nH]ncc4c3)n2)cc1 [Example 226, 1-[4-[5-(1H-indazol-5-ylamino)-4H-1,2,4-triazol-3-yl]phenoxy]-N-isopropyl-methanesulfonamide]",< 300 nM
8,"COc1cc(-c2nc(Nc3ccc4[nH]ncc4c3)n[nH]2)ccc1OCC(=O)NC1CN(C(C)=O)C1 [Example 227, N-(1-acetylazetidin-3-yl)-2-[4-[5-(1H-indazol-5-ylamino)-4H-1,2,4-triazol-3-yl]-2-methoxy-phenoxy]acetamide]",300 to 3000 nM
9,"NC1(COc2ccc(-c3nnc(Nc4ccc5[nH]ncc5c4)[nH]3)cc2)COC1 [Example 228, N-[5-[4-[(3-aminooxetan-3-yl)methoxy]phenyl]-4H-1,2,4-triazol-3-yl]-1H-indazol-5-amine]",300 to 3000 nM
10,"CCNC1(COc2ccc(-c3nnc(Nc4ccc5[nH]ncc5c4)[nH]3)cc2)COC1 [Example 229, N-[5-[4-[[3-(ethylamino)oxetan-3-yl]methoxy]phenyl]-4H-1,2,4-triazol-3-yl]-1H-indazol-5-amine]",300 to 3000 nM
11,"CC(C)NCCOc1ccc(-c2n[nH]c(Nc3ccc4[nH]ncc4c3)n2)cc1 [Example 230, N-[5-[4-[2-(isopropylamino)ethoxy]phenyl]-4H-1,2,4-triazol-3-yl]-1H-indazol-5-amine]",300 to 3000 nM
12,"COc1cc(-c2nc(Nc3ccc4[nH]ncc4c3)n(C)n2)ccc1COC(=O)NC1CCNC1 (centres unmarked) [Example 231, [4-[5-(1H-indazol-5-ylamino)-1-methyl-1,2,4-triazol-3-yl]-2-methoxy-phenyl]methyl N-pyrrolidin-3-ylcarbamate]",< 300 nM
13,"Cn1nc(-c2ccc3c(c2)OCCC3O)nc1Nc1ccc2[nH]ncc2c1Cl (centres unmarked) [Example 234, 7-[5-[(4-chloro-1H-indazol-5-yl)amino]-1-methyl-1,2,4-triazol-3-yl]chroman-4-ol]",300 to 3000 nM
14,"Cn1nc(-c2ccc3c(c2)CCNC3)nc1Nc1ccc2[nH]ncc2c1Cl [Example 237, 4-Chloro-N-[2-methyl-5-(1,2,3,4-tetrahydroisoquinolin-6-yl)-1,2,4-triazol-3-yl]-1H-indazol-5-amine]",300 to 3000 nM
15,Cn1nc(-c2ccc3c(c2)CCN(C(=O)C2CC2)C3)nc1Nc1ccc2[nH]ncc2c1Cl [Example 238],< 300 nM
16,"CC(=O)N1CCc2cc(-c3nc(Nc4ccc5[nH]ncc5c4C4CC4)n(C)n3)ccc2C1C (centres unmarked) [Example 248, 1-[6-[5-[(4-cyclopropyl-1H-indazol-5-yl)amino]-1-methyl-1,2,4-triazol-3-yl]-1-methyl-3,4-dihydro-1H-isoquinolin-2-yl]ethanone]",< 300 nM
17,"CCN1CCc2cc(-c3nc(Nc4ccc5[nH]ncc5c4C4CC4)n(C)n3)ccc2C1C (centres unmarked) [Example 249, 4-cyclopropyl-N-[5-(2-ethyl-1-methyl-3,4-dihydro-1H-isoquinolin-6-yl)-2-methyl-1,2,4-triazol-3-yl]-1H-indazol-5-amine]",3000 to 10000 nM
18,"CCNC(=O)c1ccc(-c2nc(Nc3ccc4[nH]ncc4c3C3CC3)n(C)n2)cc1 [Example 251, 4-[5-[(4-cyclopropyl-1H-indazol-5-yl)amino]-1-methyl-1,2,4-triazol-3-yl]-N-ethyl-benzamide]",< 300 nM
19,Cn1nc(-c2ccc(C(=O)NC3(C)CC3)cc2)nc1Nc1ccc2[nH]ncc2c1Cl [Example 258],< 300 nM
20,Cn1nc(-c2ccc(C(=O)Nc3cccnc3)cc2)nc1Nc1ccc2[nH]ncc2c1Cl [Example 260],< 300 nM
21,Cn1nc(-c2ccc(C(=O)Nc3ccccc3)cc2)nc1Nc1ccc2[nH]ncc2c1Cl [Example 261],< 300 nM
22,CN1CC(NC(=O)c2ccc(-c3nc(Nc4ccc5[nH]ncc5c4Cl)n(C)n3)cc2)C1 [Example 263],300 to 3000 nM
23,CCNC(=O)c1ccc(-c2nc(Nc3ccc4[nH]ncc4c3Cl)n(C)n2)c(Cl)c1 [Example 265],< 300 nM
24,Cn1nc(-c2ccc(C(=O)Nc3ccccn3)cc2)nc1Nc1ccc2[nH]ncc2c1Cl [Example 266],< 300 nM

# The remaining lines, values ahead:
row,IC50,Compound
1,< 300 nM,COc1cc(-c2nc(Nc3ccc4[nH]ncc4c3Cl)n(C)n2)ccc1OCC(=O)NC1CCC(O)CC1 (centres unmarked) [Example 212]
2,< 300 nM,COc1cc(-c2nc(Nc3ccc4[nH]ncc4c3Cl)n(C)n2)ccc1OCC(=O)N[C@@H]1CCCC[C@H]1O [Example 213]
3,< 300 nM,COc1cc(-c2nc(Nc3ccc4[nH]ncc4c3Cl)n(C)n2)ccc1OCC(=O)NC1CC(O)C1 (centres unmarked) [Example 214]
4,< 300 nM,COc1cc(-c2nc(Nc3ccc4[nH]ncc4c3Cl)n(C)n2)ccc1OCC(=O)NC(C)c1ccccn1 (centres unmarked) [Example 215]
5,< 300 nM,COc1cc(-c2nc(Nc3ccc4[nH]ncc4c3Cl)n(C)n2)ccc1OCC(=O)NC(C)c1cccnc1 (centres unmarked) [Example 216]
6,< 300 nM,COc1cc(-c2nc(Nc3ccc4[nH]ncc4c3Cl)n(C)n2)ccc1OCC(=O)NC1CCCC1 [Example 217]
7,< 300 nM,COc1cc(-c2nc(Nc3ccc4[nH]ncc4c3Cl)n(C)n2)ccc1OCC(=O)N[C@@H](C)C(F)(F)F [Example 218]
8,< 300 nM,COc1cc(-c2nc(Nc3ccc4[nH]ncc4c3Cl)n(C)n2)ccc1OCC(=O)N[C@H](C)C(F)(F)F [Example 219]
9,300 to 3000 nM,"COc1cc(-c2nc(Nc3ccc4[nH]ncc4c3)nn2C)ccc1OCC(=O)NC(C)C [Example 232, 2-[4-[5-(1H-indazol-5-ylamino)-2-methyl-1,2,4-triazol-3-yl]-2-methoxy-phenoxy]-N-isopropyl-acetamide]"
10,< 300 nM,"COc1cc(-c2nc(Nc3ccc4[nH]nc(C)c4c3)n(C)n2)ccc1OCC(=O)NC(C)C [Example 233, N-isopropyl-2-[2-methoxy-4-[1-methyl-5-[(3-methyl-1H-indazol-5-yl)amino]-1,2,4-triazol-3-yl]phenoxy]acetamide]"
11,< 300 nM,"COc1cc(-c2nc(Nc3ccc4[nH]ncc4c3)n(C)n2)ccc1OCC(=O)NC(C)C(F)(F)F (centres unmarked) [Example 235, 2-[4-[5-(1H-indazol-5-ylamino)-1-methyl-1,2,4-triazol-3-yl]-2-methoxy-phenoxy]-N-(2,2,2-trifluoro-1-methyl-ethyl)acetamide]"
12,< 300 nM,"CC(C)C(=O)N1CCc2cc(-c3nc(Nc4ccc5[nH]ncc5c4Cl)n(C)n3)ccc2C1 [Example 236, 1-[6-[5-[(4-chloro-1H-indazol-5-yl)amino]-1-methyl-1,2,4-triazol-3-yl]-3,4-dihydro-1H-isoquinolin-2-yl]-2-methyl-propan-1-one]"
13,< 300 nM,Cn1nc(-c2ccc3c(c2)CCN(C(=O)CNCC(F)(F)F)C3)nc1Nc1ccc2[nH]ncc2c1Cl [Example 239]
14,< 300 nM,"COc1cc(-c2nc(Nc3ccc4[nH]ncc4c3)n(C)n2)ccc1C(=O)NCC(F)(F)F [Example 240, 4-[5-(1H-indazol-5-ylamino)-1-methyl-1,2,4-triazol-3-yl]-2-methoxy-N-(2,2,2-trifluoroethyl)benzamide]"
15,< 300 nM,"COCCNC(=O)COc1ccc(-c2nc(Nc3ccc4[nH]ncc4c3Cl)n(C)n2)cc1OC [Example 242, 2-[4-[5-[(4-chloro-1H-indazol-5-yl)amino]-1-methyl-1,2,4-triazol-3-yl]-2-methoxy-phenoxy]-N-(2-methoxyethyl)acetamide]"
16,< 300 nM,"CC(C)NC(=O)COc1ccc(-c2nc(Nc3ccc4[nH]ncc4c3)n(C)n2)cc1Cl [Example 250, 2-[2-chloro-4-[5-(1H-indazol-5-ylamino)-1-methyl-1,2,4-triazol-3-yl]phenoxy]-N-isopropyl-acetamide]"
17,< 300 nM,"CCc1c(Nc2nc(-c3ccc(C(=O)NC4CC4)c(OC)c3)nn2C)ccc2[nH]ncc12 [Example 252, N-cyclopropyl-4-[5-[(4-ethyl-1H-indazol-5-yl)amino]-1-methyl-1,2,4-triazol-3-yl]-2-methoxy-benzamide]"
18,< 300 nM,CCNC(=O)c1ccc(-c2nc(Nc3ccc4[nH]ncc4c3Cl)n(C)n2)cc1 [Example 253]
19,300 to 3000 nM,CCNC(=O)c1ccc(-c2nc(Nc3ccc4[nH]ncc4c3Cl)n(C)n2)cc1Cl [Example 254]
20,300 to 3000 nM,Cn1nc(-c2ccc(C(=O)NC3(C)CC3)c(Cl)c2)nc1Nc1ccc2[nH]ncc2c1Cl [Example 255]
21,< 300 nM,Cn1nc(-c2ccc(C(=O)NC(C)(C)C)c(Cl)c2)nc1Nc1ccc2[nH]ncc2c1Cl [Example 256]
22,< 300 nM,Cn1nc(-c2ccc(C(=O)NC(C)(C)C)cc2)nc1Nc1ccc2[nH]ncc2c1Cl [Example 257]
23,3000 to 10000 nM,CN1CC(NC(=O)c2ccc(-c3nc(Nc4ccc5[nH]ncc5c4Cl)n(C)n3)cc2Cl)C1 [Example 259]
24,< 300 nM,CCNC(=O)c1ccc(-c2nc(Nc3ccc4[nH]ncc4c3Cl)n(C)n2)c(C)c1 [Example 262]
25,< 300 nM,COc1cc(-c2nc(Nc3ccc4[nH]ncc4c3Cl)n(C)n2)ccc1C(=O)NC1(C)CC1 [Example 264]
26,< 300 nM,COc1cc(-c2nc(Nc3ccc4[nH]ncc4c3Cl)n(C)n2)ccc1C(=O)NC1CN(C)C1 [Example 267]
